{"source": "patent US11612634B2", "about": "(priority 2020, dated 2023)", "key": {"[1]": {"tested_on": "Carr-induced inflammatory pain rat model", "assay": "Analgesic effect on mechanical hyperalgesia (PWT) in Carr-induced inflammatory pain rat model", "format": "in vivo", "method": "The mechanical hyperalgesia of rats was measured by 38500-pressure application measurement (PAM) system (Ugo Basile Biological Research Apparatus, Comerio-Varese, Italy), which consisted of a hand-held part and an integrated electronic part. The hand-held part was a force sensor which was designed according to a Randall-Selitto algesimeter. The integrated electronic part was configured to automatically record a maximum PWT applied to the left hind paw of the rats.\nThe Carr-induced inflammatory pain model was built according to a published method (Alessandri-Haber N, et al. Neurosci. Vol 29(19), pp. 6217-6288, 2009) for evaluating an analgesic effect of drugs administered by intraplantar injection. […] Those rats with a PWT lower than 100 gf were considered to be a desired Carr-induced inflammatory pain model, those rats with the PWT higher than 100 gf was removed.\n(S1) A total of 18 healthy adult SD rats, weighing 180-220 g, were selected, numbered on tails and placed in the same cage.\n(S2) The rats were maintained in a measuring room for 2 h for adaptation.\nThe measurement was repeated 3-5 times for each rat with an interval of 5-10 min. The results of multiple PWT measurements were averaged as the Baseline (BL) (unit: g). After that, 6 μL of 1 wt % Carr was intradermally injected into the plantar surface of the hind paw to build an inflammatory pain rat model.\n(S4) The PWT of the left hind paw of each rat was measured 1 h after the Carr injection. Rats with a higher inflammatory threshold and rats with a lower inflammatory threshold were mixed and equally divided into three groups (group A, group B and group C), each for six rats, such that any two groups of rats had similar distribution of inflammatory threshold. The groups A, B and C were intradermally injected with normal saline, 5 mg/kg of morphine and 2 μg/kg of the short peptide P10581, respectively, at the plantar surface of the left hind paw. 1 h later, the PWT of the left hind paw of the rats in each group was measured 3-5 times at an interval of 5-10 min. The multiple PWT measurement results were averaged as the practical PWT (unit: g). Then the drug was injected every 2 h according to the above-mentioned administration dose and time, and the corresponding PWT was recorded (six injections in total).\n(1) 24 healthy adult SD rats, weighing 180-220 g, were selected, reinjected with 6 μL of a 1 wt % Carr solution and divided into 4 groups randomly and averagely (i.e., groups A-D). The group A was injected with normal saline; the group B was intradermally injected with 0.1 μg/kg of the short peptide P10581 through the plantar surface of the left hind paw; the group C was intradermally injected with 0.1 μg/kg of the short peptide P10581 and then with 5 mg/kg of morphine 30 min later through the plantar surface of the left hind paw; and the group D was intradermally injected with 0.05 μg/kg of the short peptide P10581, and then with 5 mg/kg of morphine 30 min later through the plantar surface of the left hind paw. 1 h later, the PWT of each group was recorded when the mechanical withdrawal of the left hind paw occurred, and each rat was measured 3-5 times at an interval of 5-10 min.\n(2) The drug was injected every 2 h according to the above-mentioned administration dose and time (seven times in total), and the PWT was recorded.\n(S1) A total of 20 healthy adult SD rats (half male and half female), weighing 180-220 g, were selected, numbered on tails and transferred to the same cage.\n(S4) The PWT of the left hind paw of each rat was measured 1 h after the Carr injection."}, "[2]": {"tested_on": "bone cancer pain (BCP) rat model", "assay": "Analgesic effect on mechanical hyperalgesia (PWT) in BCP rat model", "format": "in vivo", "conditions": "for analgesic effect on BCP, low dose: repeated", "method": "The tumor cell implantation (TCI) surgery was performed according to the method proposed by Medhurst S J, et al (Medhurst S. J., Walker K., Bowes M., Kidd B. L., Glatt M., Muller M., et al. (2002). A rat model of bone cancer pain. Pain 96 129-140). Walker 256 mammary gland carcinoma cells were transferred from a liquid nitrogen tank, thawed quickly in a 37° C. water bath and loaded into a centrifugal tube. Then the cells were added with an appropriate amount of normal saline and centrifuged at 1200 r/min for 6 min. The supernatant was discarded, and the cells were washed again, and suspended with phosphate buffered saline (PBS) to 1×10^7/mL. Young female SD rats, weighing 90-100 g, were intraperitoneally injected with 0.5 mL of mammary gland carcinoma cells, and a large amount of ascites occurred after 6-7 days of the injection. 10 mL of ascites was extracted and centrifuged for 5 min. The precipitate was washed with normal saline and then diluted with PBS to 1×10^5/mL. The rats were anesthetized with 10% chloral hydrate and shaved, and a 1-cm incision was made in the upper half skin of the right tibia to expose the bone surface with a minimal damage to the surrounding muscle or blood vessels. The bone was pierced with a 4 # needle at 5 mm below a knee joint distal to an epiphysial growth plate, and the needle was inserted to a depth so that it can be pushed into the medullary cavity. The needle was then removed, and a 10 […] needle containing cells to be injected was inserted into the medullary cavity, determining whether the needle was located in the medullary cavity by withdrawal. 5 mL (1×10^5/mL) of cancer cells were injected into the medullary cavity, and whether there are cells or blood leaking out from the injection site was observer.\nThe needle was kept in the medullary cavity for 1 min and then was withdrawn to enable the full cell spreading, and the injection site was pressed by a cotton swab for 1 min and closed with bone cement. The wound was sutured and treated with penicillin powder. The PWT was measured 3 days after modeling, where those rat models with a significant lower PWT were considered as successful BCP rat models, and the undesirable models were removed.\n(S1) Healthy adult SD rats, weighing 180-220 g, were selected, numbered on tails and transferred to the same cage (15 rats in total).\n(S2) The rats were maintained in the measuring room for 2 h for adaptation.\nThe measurement was repeated 3-5 times for each rat with an interval of 5-10 min, and the results were averaged. The rats were allowed to rest for several hours to build a BCP model.\nThose unsuccessful models were removed, and on the 22nd day after modeling, the successfully-established models were randomly divided into 3 groups, where the groups A-C were subcutaneously with normal saline, […], respectively. 1.5 h later, the PWT of the right hind paw of each group was measured. Each rat was measured 3-5 times with an interval of 5-10 min, and the PWTs were averaged as the practical PWT (unit: g). The drug administration was performed twice a day (at 9:30 a.m. and 4:30 p.m.) for consecutive 4 days, and the PWT of each group before and after administration was measured in the morning every day. […]"}, "[3]": {"conditions": "2 μg/kg i.d. plantar, every 2 h, six injections"}, "[4]": {"conditions": "14.4 μg/kg, twice a day, 4 days"}}, "note": "Entries after “also recorded” stand apart in the source; their conditions may differ."}
{"molecule": "CN1CC[C@]23c4c5ccc(O)c4O[C@H]2[C@@H](O)C=C[C@H]3[C@H]1C5", "note": "[morphine, reference compound]", "values": [{"measurement": "analgesic effect / tolerance after repeated injection", "setting": "[1]; rat, in vivo", "value": "gradually declined analgesic effect with the increase in the number of injections"}, {"measurement": "analgesic effect / tolerance after repeated injection", "setting": "[2]; rat, in vivo", "value": "disappeared at day 4; also recorded: completely lost the analgesic effect on BCP"}, {"measurement": "analgesic effect on BCP", "setting": "[2]; rat, in vivo", "value": "significantly alleviated"}]}
{"molecule": "WKCNPNDDKCCRPKLKC [P10581]", "values": [{"measurement": "analgesic effect on hyperalgesia, low dose", "setting": "[1]; 0.1 μg/kg i.d., every 2 h, seven injections", "value": "no relieving effect on the hyperalgesia in rats"}, {"measurement": "duration of analgesic effect", "setting": "[1]; 2 μg/kg i.d. plantar, every 2 h", "value": "more than 12 h"}, {"measurement": "analgesic effect on Carr-induced inflammatory pain threshold (PWT)", "setting": "[1]; [3]", "value": "completely reverse the Carr-induced inflammatory pain threshold"}, {"measurement": "analgesic tolerance after repeated injection", "setting": "[1]; [3]", "value": "without developing the analgesic tolerance"}, {"measurement": "analgesic effect on BCP, low dose", "setting": "[2]; 0.2 μg/kg S.C.", "value": "no analgesic effect"}, {"measurement": "analgesic effect on BCP, low dose", "setting": "[2]; 0.4 μg/kg S.C.", "value": "no analgesic effect on BCP"}, {"measurement": "analgesic effect on BCP", "setting": "[2]; [4]", "value": "significantly alleviate the BCP"}, {"measurement": "analgesic tolerance after repeated injection", "setting": "[2]; [4]", "value": "without developing the analgesic tolerance"}]}
